Source: PubChem BioAssay (NCI)
Values joined by “and” are separate entries in the source; they are usually repeats but may differ in a detail not shown here. Equal values may be shown once.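 Cells were grown in 96-well plates and exposed to each compound for 48 hours at five concentrations; endpoints were interpolated linearly between bracketing concentrations, or set to the highest concentration if not reached. At the GI50, growth is halved. Definition used: TGI = concentration required for complete inhibition of growth.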

Assays:
Test in all cases: NCI-60 cell line screen, 48 h
A498 renal = tested on: A498 renal
NCI/ADR-RES ovarian = tested on: NCI/ADR-RES ovarian
HL-60(TB) leukemia = tested on: HL-60(TB) leukemia
HS 578T breast = tested on: HS 578T breast
MDA-MB-231 breast = tested on: MDA-MB-231 breast
RXF 393 renal = tested on: RXF 393 renal
PC-3 prostate = tested on: PC-3 prostate
NCI-H226 lung = tested on: NCI-H226 lung
HCT-15 colon = tested on: HCT-15 colon
NCI-H522 lung = tested on: NCI-H522 lung

Row | Structure (SMILES) | GI50 (A498 renal) | TGI (A498 renal) | GI50 (NCI/ADR-RES ovarian) | TGI (NCI/ADR-RES ovarian) | GI50 (HL-60(TB) leukemia) | TGI (HL-60(TB) leukemia) | GI50 (HS 578T breast) | TGI (HS 578T breast) | GI50 (MDA-MB-231 breast) | TGI (MDA-MB-231 breast) | GI50 (RXF 393 renal) | TGI (RXF 393 renal) | GI50 (PC-3 prostate) | TGI (PC-3 prostate) | GI50 (NCI-H226 lung) | TGI (NCI-H226 lung) | GI50 (HCT-15 colon) | TGI (HCT-15 colon) | GI50 (NCI-H522 lung) | TGI (NCI-H522 lung)
1 | COc1ccc(-c2nsc3c2NC(=O)CC3c2cccc(OC)c2)cc1 (stereo not given) | 0.408 µM | 5.02 µM | 0.42 µM | 2.27 µM | 1.35 µM | 17.4 µM | 1.34 µM | 16.9 µM | 1.17 µM | > 100 µM | 2.29 µM | 8.95 µM | 2.45 µM | > 100 µM | 17.5 µM | > 100 µM | 0.527 µM | > 100 µM | 0.702 µM | 5.28 µM
2 | Cc1cc2cc3c(=O)[nH]c(=O)[nH]c3nc2cc1C |  | > 100 µM |  | > 100 µM |  | > 100 µM |  | > 100 µM |  | > 100 µM |  | > 100 µM |  | > 100 µM |  | > 100 µM |  | > 100 µM |  | > 100 µM
3 | CC1(C)N=C(N)N=C(N)N1c1ccc(CCCCc2ccc(Cl)c(S(=O)(=O)F)c2)c(Cl)c1 | 5.56 µM | 25.7 µM | 40 µM | > 100 µM | 0.38 µM | 4.1 µM | 9.71 µM | 34.2 µM | 4.03 µM | 20.6 µM | 5.93 µM | 27.8 µM | 0.214 µM | 15.1 µM | 4.18 µM | 37.6 µM | 0.597 µM | > 100 µM | 0.71 µM | 13.3 µM
4 | Cn1c(=O)c(Oc2ccc(F)cc2)cc2cnc(NC3CCOCC3)nc21 | 13.4 µM | > 25 µM | > 25 µM | > 25 µM | > 25 µM | > 25 µM | > 25 µM | > 25 µM | > 25 µM | > 25 µM | 24.7 µM | > 25 µM | > 25 µM | > 25 µM | > 17.1 µM | > 25 µM | > 25 µM | > 25 µM | > 25 µM | > 25 µM
5 | O=C(NNc1ccccc1)C(=O)NNc1ccccc1 | > 100 µM | > 100 µM | > 100 µM | > 100 µM | 0.627 µM | 5.28 µM | > 100 µM | > 100 µM | 24.1 µM | > 100 µM | > 100 µM | > 100 µM | > 100 µM | > 100 µM | > 100 µM | > 100 µM | 0.746 µM | > 100 µM | > 100 µM | > 100 µM
6 | CC1CCN(C(=O)OCc2nc3nc(Cl)nc(N4CCOCC4)c3[nH]2)CC1 | 1.65 µM | 4.05 µM | 2.21 µM | 10.4 µM | 0.423 µM | 3.78 µM | 1.76 µM | 4.85 µM | 1.25 µM | 2.7 µM | 0.554 µM | 2 µM | 0.832 µM | 2.42 µM | 1.62 µM | 4.23 µM | 0.634 µM | 2.22 µM | 1.08 µM | 3.13 µM
7 | CSc1nc(NC2OC(COC(C)=O)C(OC(C)=O)C(OC(C)=O)C2OC(C)=O)c(N=CC=Nc2c(NC3OC(COC(C)=O)C(OC(C)=O)C(OC(C)=O)C3OC(C)=O)nc(SC)n(C)c2=O)c(=O)n1C (stereo not given) | > 50 µM | > 50 µM and 82.8 µM | > 50 µM | > 100 µM | > 50 µM | > 100 µM | 13.2 µM | 50 µM and 75.7 µM | 25.2 µM | 50 µM and > 100 µM | 12.4 µM | 46.2 µM and 61.5 µM | > 50 µM | > 100 µM |  | > 50 µM and 97.8 µM | > 50 µM | > 100 µM | > 50 µM | > 100 µM
8 | O=C1CCC/C=C\C[C@H]2C=CC(=O)/C2=C/C[C@H](C/C=C\CC(F)(F)F)O1 | 2.56 µM | 4.89 µM | 0.627 µM | 16.7 µM | 0.495 µM | 2.58 µM | 1.17 µM | 9.68 µM | 0.722 µM | 5.63 µM | 0.424 µM | 1.4 µM | 0.574 µM | 2.71 µM | 0.382 µM | 1.01 µM | 0.316 µM | 0.867 µM | 0.257 µM | 0.537 µM
9 | C=CCc1ccc(O)c(-c2ccc(O)c(CC=C)c2)c1 | 17.4 µM | 31.9 µM | 15.3 µM | 33.9 µM | 9.66 µM | > 52.3 µM | 14.2 µM | 39.7 µM | 12.1 µM | 25.6 µM | 18.9 µM | 47.3 µM | 15.2 µM | 33.2 µM | 18.4 µM | 36.9 µM | 16.5 µM | 33.7 µM | 10.4 µM | 26.2 µM
10 | CN(C)C/C=C/C(=O)Nc1cc2c(Nc3ccc(F)c(Cl)c3)ncnc2cc1O[C@H]1CCOC1 | 0.155 µM and 0.106 µM | 2.55 µM and 2.3 µM | 2.27 µM and 1.92 µM | 14.8 µM and > 10 µM | 1.45 µM and 0.599 µM | 5.03 µM and 3.75 µM | 2.4 µM and 1.62 µM | 13.3 µM and > 8.16 µM | 1.2 µM and 0.806 µM | 7.06 µM and 4.75 µM | 1.17 µM and 0.514 µM | 6.79 µM and 4.13 µM | 3.19 µM and 3.26 µM | 12.8 µM and > 10 µM | 2.04 µM and 5.25 µM | 8.45 µM and > 10 µM | 1.59 µM and 1.33 µM | 12.1 µM and > 9.47 µM | 0.0189 µM and 0.00532 µM | 1.15 µM and 2.74 µM
11 | Nc1ccn(C2OC(CO)C(O)C2O)c(=O)n1 (stereo not given) | 12 µM and 4.38 µM and 20.8 µM | > 100 µM and 424 µM | 0.532 µM |  | 0.493 µM |  |  | > 500 µM |  | > 500 µM | 13.6 µM | > 500 µM | > 46.3 µM | > 500 µM | 0.637 µM | > 500 µM |  | > 500 µM |  | > 500 µM
12 | O=[N+]([O-])c1cccc2ccc(N/N=C/c3ccccc3O)nc12 | > 100 µM | > 100 µM | > 100 µM | > 100 µM | 1.74 µM | > 100 µM | 72.4 µM | > 100 µM | > 100 µM | > 100 µM | 65.8 µM | > 100 µM | 4.67 µM | > 100 µM | > 100 µM | > 100 µM | > 100 µM | > 100 µM |  | > 39.6 µM
13 | COc1ccc(-c2cc(/C=C/C(=O)c3ccc(OC)c(OC)c3)[nH]n2)cc1 | 1.42 µM | 3.55 µM | 3.44 µM | 24.8 µM | 2.18 µM | 6.4 µM | 3.38 µM | 29 µM | 2 µM | 6.63 µM | 1.39 µM | 2.94 µM | 1.45 µM | 3.46 µM |  |  | 1.35 µM | 3.56 µM | 0.41 µM | 1.39 µM
